The values that follow come from article PMC9043818, “Coordination complexes of zinc and manganese based on pyridine-2,5-dicarboxylic acid N-oxide: DFT studies and antiproliferative activities consideration” (RSC Advances, 2021).

Assay [1] deals with human breast cancer cells MDA-MD-231. Put plainly: MTT antiproliferative assay, MDA-MD-231. The format is cell-based. To be noted: 72 h incubation, mean ± SD. On the procedure:
(§1) Human breast cancer cells MDA-MD-231 (ATCC HTB-26), human breast cancer cells MCF-7 (ATCC HTB-22), human cervix epithelial carcinoma HeLa (ATCC CCL-2), human colon cancer cell line HT-29 (ATCC HTB-38), mouse neuroblastoma cell line Neuro-2a (ATCC CCL-131) and mouse fibroblast L-929 cell line (ATCC CCL-1) were obtained from the American Type Culture Collection (ATCC; Manassas, VA, USA) and cultured at 37 °C in a humidified atmosphere of 5% CO2 in air. HeLa cells were cultured in Dulbecco's Modified Eagle's Medium (DMEM) with 0.1 mM nonessential amino acids, 2 mM L-glutamine, 1.0 mM sodium pyruvate and 5% fetal bovine serum, at 37 °C in an atmosphere of 5% CO2. Cells were plated in 96-well sterile plates at a density of 1 × 10^4 cells per well in 100 μL of medium and incubated for 24 h. Also MDA-MD-231, HT-29, MCF-7 and Neuro-2a were cultured in DMEM containing 10% fetal bovine serum, 100 units per ml of penicillin and 100 μg ml^−1 of streptomycin. L-929 cells were cultured in RPMI-1640 medium containing 10% fetal bovine serum, 100 units per ml of penicillin and 100 μg ml^−1 of streptomycin.
(§2) Complexes 1–3 ([Mn2(pydco)2(bpy)2(H2O)2]·2H2O (1), [Zn(bpy)(Hpydco)2] (2) and [Zn(bpy)Cl(Hpydco)]·2H2O (3)) were screened for antiproliferative activity against human breast cancer cells (MDA-MD-231), human cervix epithelial carcinoma (HeLa), human colon cancer cell line (HT-29), human breast cancer cells (MCF-7), mouse neuroblastoma cell line (Neuro-2a) and mouse fibroblast L-929 cell line using cisplatin as a comparative standard. Cell viability was evaluated by a colorimetric method based on the tetrazolium salt MTT ([3-(4,5-dimethylthiazol-2-yl)-2,5-diphenyltetrazolium bromide]), which is reduced by living cells to yield purple formazan crystals. Cells were seeded in 96-well plates at a density of 2–5 × 10^4 cells of MDA-MD-231, MCF-7, HeLa, HT-29, Neuro-2a and L-929 per well in 200 μL of culture medium and left to incubate overnight for optimal adherence. After careful removal of the medium, 200 μL of a dilution series of the complexes in fresh medium were added and incubation was performed at 37 °C/5% CO2 for 72 h. Complexes 1–3 were first solubilized in DMSO, diluted in medium and added to the cells in final concentrations between 20 nM and 200 μM. […] Cisplatin was first solubilized in saline and then added at the same concentrations used for the other complexes. At the end of the incubation period, the complexes were removed, and the cells were incubated with 200 μL of MTT solution (500 μg ml^−1). After 3–4 h at 37 °C/5% CO2, the medium was removed, and the purple formazan crystals were dissolved in 200 μL of DMSO by shaking. The cell viability was evaluated by measurement of the absorbance at 570 nm by using a STAT FAX-2100 microplate reader (Awareness Technology, Palm City, FL, USA). The cell viability was calculated by dividing the absorbance of each well by that of the control wells (cells treated with medium containing 1% DMSO). Each experiment was repeated at least three times and each point was determined in at least three replicates.
(§3) IC50 values are expressed as mean ± standard deviation (SD) from at least three independent experiments. Statistical tests including One way ANOVA, Tukey multiple comparison or unpaired Student's t-tests were performed using SPSS, ver.17 software. A p value of less than 0.05 was considered as significant.

For assay [2], the system named is mouse fibroblast L-929 cell line. As to the kind of experiment: MTT assay, normal cell line L929. The settings on record: IC50 > 100 μM considered inactive, read-out: IC50 ± SD L929. The format is cell-based. On the procedure: as §1, §2, §3
For orientation: Tetrazolium dyes change colour on reduction, which living cells bring about.

The subject of assay [3] is human cervix epithelial carcinoma HeLa. Put plainly: MTT antiproliferative assay, HeLa. It counts as cell-based. To be noted: 72 h incubation, mean ± SD. On the procedure:
as §1, §2, §3

The subject of assay [4] is human colon cancer cell line HT-29. As to the kind of experiment: MTT antiproliferative assay, HT-29. The settings on record: mean ± SD. It counts as cell-based. How it is done:
as §1, §2, §3

Assay [5] deals with MDA-MB-231 breast cancer cells. Put plainly: TUNEL assay (dUTP-FITC, confocal microscopy). The settings on record: MDA-MB-231, 24 h, vs 0.3% DMSO controls. The format is cell-based, human. How it is done:
Analysis of apoptosis for 2 and 3 by cytometry using TUNEL assay. Also, apoptosis was detected using an in situ cell death detection kit (Boehringer Mannheim Corp., Indianapolis, IN) as described by Narla et al. and Zhu et al. (Narla et al., 2000;[42] Zhu et al., 1998 (ref. [43])). Cells were incubated with 1–3 in 0.3% DMSO or 1 : […], permeabilized and incubated with the reaction mixture containing TdT- and FITC-conjugated dUTP, and counterstained with propidium iodide. Cells were transferred to slides and viewed with a confocal laser scanning microscope (Bio-Rad MRC 1024) mounted on a Nikon Eclipse E800 series upright microscope as reported previously (Narla et al., 2000;[42] Zhu et al., 1998 (ref. [43])).

Assay [6] has as its system MDA-MB-231 cancer cell line. Put plainly: Apoptosis assay by flow cytometry (Annexin V-FITC/PI). The format is cell-based, human. The settings on record: for induction of apoptosis (flow cytometry): MDA-MB-231, 24 h; for induction of apoptosis (flow cytometry) / Apoptotic cells (%) / Late apoptotic/necrotic cells (%) / Necrotic cells (%) / Vital cells (%): concentration close to the IC50; for population of apoptotic cell, fold higher than cisplatin: at the same concentration as cisplatin; for Apoptotic cells (%) / Late apoptotic/necrotic cells (%) / Necrotic cells (%) / Vital cells (%): MDA-MD-231, 24 h. How it is done:
In order to study in which way 1–3 produced the cellular death (necrosis or apoptosis) studies of flow cytometry were performed on the complexes and cisplatin as a reference. Four areas in the diagrams stand for necrotic cells (Q1, low Annexin V-FITC and high PI signal, left square on the top), late apoptosis or necrosis cells (Q2, high Annexin V-FITC and high PI signal, right square on the top), live cells (Q3, low Annexin V-FITC and low PI signal, left square at the bottom), apoptosis cells (Q4, high Annexin V-FITC and low PI signal, right square at the bottom), respectively.
Background: Flow cytometry measures light scatter and fluorescence of single cells or particles in a stream.

For assay [7], the system named is mouse neuroblastoma cell line Neuro-2a. As to the kind of experiment: MTT antiproliferative assay, Neuro-2a. The settings on record: 72 h incubation, mean ± SD. It counts as cell-based. On the procedure: as §1, §2, §3
For assay [8], the system named is human breast cancer cells MCF-7. Put plainly: MTT antiproliferative assay, MCF-7. The format is cell-based. The settings on record: mean ± SD. How it is done: as §1, §2, §3
In assay [9] the test system is MDA-MD-231, MCF-7, HeLa, HT-29, Neuro-2a and L-929 cell lines. As to the kind of experiment: MTT assay, range over all cell lines. It counts as cell-based. To be noted: 72 h, all six cell lines, read-out: IC50 values, span over all cell lines. How it is done: Human breast cancer cells MDA-MD-231 (ATCC HTB-26), human breast cancer cells MCF-7 (ATCC HTB-22), human cervix epithelial carcinoma HeLa (ATCC CCL-2), human colon cancer cell line HT-29 (ATCC HTB-38), mouse neuroblastoma cell line Neuro-2a (ATCC CCL-131) and mouse fibroblast L-929 cell line (ATCC CCL-1) were obtained from the American Type Culture Collection (ATCC; Manassas, VA, USA) and cultured at 37 °C in a humidified atmosphere of 5% CO2 in air. HeLa cells were cultured in Dulbecco's Modified Eagle's Medium (DMEM) with 0.1 mM nonessential amino acids, 2 mM L-glutamine, 1.0 mM sodium pyruvate and 5% fetal bovine serum, at 37 °C in an atmosphere of 5% CO2. […]
Complexes 1–3 ([Mn2(pydco)2(bpy)2(H2O)2]·2H2O (1), [Zn(bpy)(Hpydco)2] (2) and [Zn(bpy)Cl(Hpydco)]·2H2O (3)) were screened for antiproliferative activity against human breast cancer cells (MDA-MD-231), human cervix epithelial carcinoma (HeLa), human colon cancer cell line (HT-29), human breast cancer cells (MCF-7), mouse neuroblastoma cell line (Neuro-2a) and mouse fibroblast L-929 cell line using cisplatin as a comparative standard. Cell viability was evaluated by a colorimetric method based on the tetrazolium salt MTT ([3-(4,5-dimethylthiazol-2-yl)-2,5-diphenyltetrazolium bromide]), which is reduced by living cells to yield purple formazan crystals. […]

Setting [10] is: experiment for 2 (Table 4), 2 and cisplatin at the same concentration.
Where [11] appears, read: Mus musculus, L929, 72 h incubation.
[12] abbreviates: Homo sapiens, HT-29, 72 h incubation.
[13] abbreviates: Homo sapiens, MCF7, 72 h incubation.
Where [14] appears, read: experiment for 3 (Table 5), 3 and cisplatin at the same concentration, MDA-MB-231.

Where two headings read alike, the source gives them in different places.

For the molecule [Zn(bpy)(Hpydco)2] [Complex 2], the IC50 (usually the concentration at which inhibition is half-maximal) in [1] is 5.94 ± 1.98 µM; in assay [2] (72 h incubation), more than 100 µM; in assay [3], 41.2 ± 5.07 µM; in assay [4] (72 h incubation), 17.3 ± 2.57 µM; in assay [7], 81.2 ± 9.28 µM; in assay [8] (72 h incubation), 15.6 ± 3.24 µM. In assay [9], the IC50 was in the range of 5.94 to 100 µM. Further, the “induction of apoptosis (TUNEL, apoptotic nuclei)” value in assay [5] is reported as “induce apoptosis”. Further, in assay [6], the “induction of apoptosis (flow cytometry)” value is recorded as “could induce apoptosis”. For the same molecule, in assay [6] (MDA-MB-231), the “population of apoptotic cell, fold higher than cisplatin” value is on record as approximately 1.2 fold. The “population of apoptotic cell (apoptotic + late apoptotic)” value in assay [6] (setting [10]) was determined as 79.45%. In addition, the “Apoptotic cells (%)” value in assay [6] (experiment for 2) is given as 43.91%. In addition, the “Late apoptotic/necrotic cells (%)” value in [6] (experiment for 2) worked out at 35.54%. Besides, in [6] (experiment for 2), the “Necrotic cells (%)” value is 0.82%. Further, the “Vital cells (%)” value in assay [6] (experiment for 2) is 19.73%.

`O=C(O)c1ccc(C(=O)O)[n+]([O-])c1` [Complex H2pydco, pyridine-2,5-dicarboxylic acid N-oxide]: the IC50 in [1] (Homo sapiens) was 45.7 ± 4.75 µM; in assay [2] (setting [11]), more than 100 µM; in [3] (Homo sapiens, HeLa), 67.1 ± 5.45 µM; in [4] (setting [12]) it was 58.9 ± 5.01 µM; in assay [7] (mouse/rat NG108-15, N2a), more than 100 µM; in assay [8] (setting [13]), 57.9 ± 5.33 µM.

[Zn(bpy)Cl(Hpydco)]·2H2O [Complex 3]: the IC50 is 9.18 ± 2.25 µM in assay [1]; more than 100 µM in assay [2] (72 h incubation); 37.6 ± 4.61 µM in [3]; 14.6 ± 3.55 µM in assay [4] (72 h incubation); 87.7 ± 6.93 µM in assay [7]; 17.9 ± 2.66 µM in assay [8] (72 h incubation). In addition, the IC50 in assay [9] was in the range of 5.94 to 100 µM. The “induction of apoptosis (TUNEL, apoptotic nuclei)” value in assay [5] was “induce apoptosis”. Moreover, the “induction of apoptosis (flow cytometry)” value in assay [6] is given as “could induce apoptosis”. In addition, the “population of apoptotic cell, fold higher than cisplatin” value in [6] (MDA-MB-231) is approximately 1.8 fold. Further, in [6] (setting [14]), the “population of apoptotic cell (apoptotic + late apoptotic)” value amounted to 63.3%. Besides, the “Apoptotic cells (%)” value in assay [6] (experiment for 3) was found to be 4.30%. The “Late apoptotic/necrotic cells (%)” value in assay [6] (experiment for 3) worked out at 59.00%. For the same molecule, the “Necrotic cells (%)” value in [6] (experiment for 3) was 4.70%. The “Vital cells (%)” value in [6] (experiment for 3) is given as 32.00%.

Turning to `N.N.[Cl][Pt][Cl]` [Cisplatin, cisplatin, reference compound], the IC50 in assay [1] came out at 24.7 ± 4.71 µM; in assay [2] (72 h incubation), 0.7 ± 0.2 µM; in [3], 0.45 ± 0.13 µM; in assay [4] (72 h incubation), 19.3 ± 3.46 µM; in assay [7], 103 ± 9.8 µM; in [8] (72 h incubation), 5.94 ± 1.47 µM. The “population of apoptotic cell (apoptotic + late apoptotic)” value in [6] (setting [10]) was found to be 65.28%; in assay [6] (setting [14]), 35.8%. Also, the “Apoptotic cells (%)” value in assay [6] (experiment for 2) turned out to be 34.65%; in [6] (experiment for 3) it was 15.80%. Further, the “Late apoptotic/necrotic cells (%)” value in [6] (experiment for 2) amounted to 30.63%; in [6] (experiment for 3) it was 20.00%. The “Necrotic cells (%)” value in assay [6] (experiment for 2) was 0.98%; in [6] (experiment for 3), 3.20%. Also, the “Vital cells (%)” value in [6] (experiment for 2) is given as 33.74%; in [6] (experiment for 3), 61.00%.

As for “[Mn2(pydco)2(bpy)2(H2O)2]·2H2O [Complex 1]”, the IC50 in assay [1] is 28.9 ± 2.47 µM; in assay [2] (72 h incubation) it was more than 100 µM; in [3], 39.2 ± 2.98 µM; in assay [4] (72 h incubation), 57.9 ± 4.71 µM; in [7], 79.5 ± 8.44 µM; in assay [8] (72 h incubation) it was 56.6 ± 7.78 µM.

Take `c1ccc(-c2ccccn2)nc1` [bpy, 2,2′-bipyridine, reference compound]: the IC50 in assay [1] (Homo sapiens) was 24.9 ± 1.98 µM; in assay [2] (setting [11]), more than 100 µM; in assay [3] (Homo sapiens, HeLa) it was 46.5 ± 4.03 µM; in assay [4] (setting [12]) it was 67.8 ± 5.54 µM; in [7] (mouse/rat NG108-15, N2a), 97.3 ± 8.7 µM; in assay [8] (setting [13]), 51.3 ± 4.78 µM.
